Source: PubChem BioAssay AID1963971 (Molecular Pharmacology Branch, DTP, NCI, 2024)
Values joined by “and” are separate entries in the source; they are usually repeats but may differ in a detail not shown here. Equal entries are not always repeated.

Test system: 953936-095-R-J2-PDC spheroids with HUVEC/MSC, viability
Assay: Anticancer human tumor 953936-095-R-J2-PDC patient-derived cervical squamous cell carcinoma cell line growth inhibition [PI3K]
Conditions: for viability, T/C: stronger effect = lower value
Source text: Combinatorial screen of targeted agents with the PI3K inhibitors inavolisib, alpelisib, duvelisib, and copanlisib in multi-cell type tumor spheroids
A high-throughput screen of multi-cell type tumor spheroids was designed to identify active combinations of targeted small molecules and PI3K pathway inhibitors. Complex spheroids include a stromal component modeled by human endothelial cells (HUVEC) and fibroblasts modeled by human mesenchymal stem cells (MSCs). The concentration ranges selected for each drug and investigational agent were based upon clinically achievable concentrations if the clinical Cmax of the agent was known.
Compounds. The drugs and investigational agents: inavolisib (NSC800729), alpelisib (NSC765974), duvelisib (NSC772469), copanlisib (NSC816437), ipatasertib (NSC767898), afuresertib (NSC778305), talazoparib (NSC767125), sapanisertib (NSC764658), selumetinib (NSC741078), tovorafenib (DAY101, NSC766906), vemurafenib (NSC761431), ravoxertinib (NSC781343), sotorasib (NSC818433), MRTX1133 (NSC 836407), abemaciclib (NSC 768073), palbociclib (NSC758247), venetoclax (NSC 766270), SY5609 (NSC837396), enzalutamide (NSC755605), and darolutamide (NSC825331), were obtained from the National Cancer Institute (NCI) Developmental Therapeutics Program Chemical Repository. The FDA-approved anticancer drug set is available from the NCI Developmental Therapeutics Program. […] The stock solutions were prepared in dimethyl sulfoxide (DMSO, Sigma-Aldrich, St. Louis, MO, cat. D2650) at 800-fold the tested concentration and stored at -70 degrees C prior to their use. All drugs and investigational agents were tested over a range starting from a high concentration at or near the clinical Cmax and decreasing in half-log increments. If the clinical Cmax for an agent had not been determined, the highest concentration tested was 10 microM.
Cell Culture. All cells were maintained in an incubator at 37 degrees C and 5% CO2 with 95% humidity. The PDC lines were cultured according to standard operating procedures established by the NCI PDMR (https://pdmr.cancer.gov/sops/default.htm). All PDCs were thawed and cultured in Matrigel-coated flasks prepared with a working solution of 1X Ham's F-12 nutrient mix, without supplementation (Invitrogen, Waltham, MA, cat. 11765054), 100 U/mL penicillin-streptomycin (Invitrogen, cat. 15140122), and 2.5% Matrigel (Corning Inc., Corning, NY, cat. 354248) for the first three passages. The 354836-022-R-J1-PDC, 475296-252-R-J1-PDC, and 997726-040-R-J2-PDC lines were cultured in 6A media, which includes advanced DMEM/F-12 (Thermo Fisher Scientific, cat. 12634028), 10 mM HEPES (Thermo Fisher Scientific, cat. 15630080), 1X GlutaMAX supplement (Thermo Fisher Scientific, cat. 35050061), 0.1 mg/mL primocin (InvivoGen, San Diego, CA, cat. ant-pm-2), 10% defined fetal bovine serum, heat inactivated (HyClone Laboratories Inc., Logan, UT, cat. SH30070.03HI), 50% L-WRN conditioned media (ATCC, cat. CRL-3276), 1.25 mM N-Acetyl-L-cysteine (Sigma-Aldrich, cat. A9165), 10 mM nicotinamide (Sigma-Aldrich, cat. N0636), 1X B-27 supplement (Thermo Fisher Scientific, cat. 17504044), 1X N-2 supplement (Thermo Fisher Scientific, cat. 17502048), and 10 microM Y-27632 dihydrochloride (Tocris Bioscience, Bristol, United Kingdom, cat. 1254). The 624824-186-R-J2-PDC line was cultured in 6C/Colon 1B media, which includes all 6A media components plus 50 ng/mL human EGF recombinant protein (Thermo Fisher Scientific, cat. PHG0311). […]

[1] = curve of first compound, second compound 0.0316 µM
[2] = curve of first compound, second compound 0.1 µM
[3] = curve of first compound, second compound 0.316 µM
[4] = curve of first compound, second compound 1 µM
[5] = second compound 0.0316 µM, first compound 0.0316 µM
[6] = second compound 0.0316 µM, first compound 0.1 µM
[7] = second compound 0.1 µM, first compound 0.0316 µM
[8] = second compound 0.1 µM, first compound 0.1 µM
[9] = second compound 0.316 µM, first compound 0.0316 µM
[10] = second compound 0.316 µM, first compound 0.1 µM
[11] = second compound 1 µM, first compound 0.0316 µM
[12] = second compound 1 µM, first compound 0.1 µM
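Note: spheroids exposed to compounds for seven days before read-out.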

CC(=O)c1c(C)c2cnc(Nc3ccc(N4CCNCC4)cn3)nc2n(C2CCCC2)c1=O + COc1c(OCCCN2CCOCC2)ccc2c3n(c(=NC(=O)c4cnc(N)nc4)nc12)CCN3
IC50 (curve of first compound, second compound 0.00316 µM): > 100 nM | IC50 (curve of first compound, second compound 0.01 µM): > 100 nM | IC50 [1]: < 0.316 nM | IC50 [2]: < 0.316 nM | IC50 [3]: < 0.316 nM | IC50 [4]: < 0.316 nM | viability, T/C (second compound 0.00316 µM, first compound 0.000316 µM): 87.4% | viability, T/C (second compound 0.00316 µM, first compound 0.001 µM): 85.6% | viability, T/C (second compound 0.00316 µM, first compound 0.00316 µM): 105% | viability, T/C (second compound 0.00316 µM, first compound 0.01 µM): 88.4% | viability, T/C (second compound 0.00316 µM, first compound 0.0316 µM): 94.3% | viability, T/C (second compound 0.00316 µM, first compound 0.1 µM): 81.4% | viability, T/C (second compound 0.01 µM, first compound 0.000316 µM): 71.5% | viability, T/C (second compound 0.01 µM, first compound 0.001 µM): 77.9% | viability, T/C (second compound 0.01 µM, first compound 0.00316 µM): 82.6% | viability, T/C (second compound 0.01 µM, first compound 0.01 µM): 78% | viability, T/C (second compound 0.01 µM, first compound 0.0316 µM): 76.9% | viability, T/C (second compound 0.01 µM, first compound 0.1 µM): 66.6% | viability, T/C (second compound 0.0316 µM, first compound 0.000316 µM): 40.5% | viability, T/C (second compound 0.0316 µM, first compound 0.001 µM): 40.2% | viability, T/C (second compound 0.0316 µM, first compound 0.00316 µM): 36.7% | viability, T/C (second compound 0.0316 µM, first compound 0.01 µM): 40.6% | viability, T/C [5]: 38.2% | viability, T/C [6]: 37.1% | viability, T/C (second compound 0.1 µM, first compound 0.000316 µM): 20.1% | viability, T/C (second compound 0.1 µM, first compound 0.001 µM): 17.4% | viability, T/C (second compound 0.1 µM, first compound 0.00316 µM): 18.9% | viability, T/C (second compound 0.1 µM, first compound 0.01 µM): 19.3% | viability, T/C [7]: 17.6% | viability, T/C [8]: 18.4% | viability, T/C (second compound 0.316 µM, first compound 0.000316 µM): 6.83% | viability, T/C (second compound 0.316 µM, first compound 0.001 µM): 6.01% | viability, T/C (second compound 0.316 µM, first compound 0.00316 µM): 6.03% | viability, T/C (second compound 0.316 µM, first compound 0.01 µM): 7.86% | viability, T/C [9]: 7.33% | viability, T/C [10]: 5.96% | viability, T/C (second compound 1 µM, first compound 0.000316 µM): 1.78% | viability, T/C (second compound 1 µM, first compound 0.001 µM): 1.73% | viability, T/C (second compound 1 µM, first compound 0.00316 µM): 1.47% | viability, T/C (second compound 1 µM, first compound 0.01 µM): 1.54% | viability, T/C [11]: 2.14% | viability, T/C [12]: 1.68%

CC1(C)CCC(Nc2ncc(C(F)(F)F)c(-c3c[nH]c4c(P(C)(C)=O)c(C#N)ccc34)n2)CN1 (stereo unspecified) + CC(Nc1ncnc2nc[nH]c12)c1cc2cccc(Cl)c2c(=O)n1-c1ccccc1
IC50 [1]: 3670 nM | IC50 [2]: 3370 nM | IC50 [3]: 3390 nM | IC50 [4]: 1780 nM | IC50 (curve of first compound, second compound 3.16 µM): < 31.6 nM | IC50 (curve of first compound, second compound 10 µM): < 31.6 nM | viability, T/C [5]: 52.6% | viability, T/C [6]: 55.8% | viability, T/C (second compound 0.0316 µM, first compound 0.316 µM): 57.6% | viability, T/C (second compound 0.0316 µM, first compound 1 µM): 61.3% | viability, T/C (second compound 0.0316 µM, first compound 3.16 µM): 56.1% | viability, T/C (second compound 0.0316 µM, first compound 10 µM): 7.92% | viability, T/C [7]: 52.2% | viability, T/C [8]: 53.5% | viability, T/C (second compound 0.1 µM, first compound 0.316 µM): 53.7% | viability, T/C (second compound 0.1 µM, first compound 1 µM): 62.5% | viability, T/C (second compound 0.1 µM, first compound 3.16 µM): 51.9% | viability, T/C (second compound 0.1 µM, first compound 10 µM): 6.89% | viability, T/C [9]: 60.1% | viability, T/C [10]: 53.2% | viability, T/C (second compound 0.316 µM, first compound 0.316 µM): 44.6% | viability, T/C (second compound 0.316 µM, first compound 1 µM): 49.9% | viability, T/C (second compound 0.316 µM, first compound 3.16 µM): 56.3% | viability, T/C (second compound 0.316 µM, first compound 10 µM): 6.08% | viability, T/C [11]: 59.9% | viability, T/C [12]: 49.7% | viability, T/C (second compound 1 µM, first compound 0.316 µM): 49.2% | viability, T/C (second compound 1 µM, first compound 1 µM): 46.3% | viability, T/C (second compound 1 µM, first compound 3.16 µM): 49.2% | viability, T/C (second compound 1 µM, first compound 10 µM): 5.38% | viability, T/C (second compound 3.16 µM, first compound 0.0316 µM): 45.9% | viability, T/C (second compound 3.16 µM, first compound 0.1 µM): 46.7% | viability, T/C (second compound 3.16 µM, first compound 0.316 µM): 49.3% | viability, T/C (second compound 3.16 µM, first compound 1 µM): 44.5% | viability, T/C (second compound 3.16 µM, first compound 3.16 µM): 45.7% | viability, T/C (second compound 3.16 µM, first compound 10 µM): 3.11% | viability, T/C (second compound 10 µM, first compound 0.0316 µM): 38% | viability, T/C (second compound 10 µM, first compound 0.1 µM): 36.5% | viability, T/C (second compound 10 µM, first compound 0.316 µM): 38.4% | viability, T/C (second compound 10 µM, first compound 1 µM): 39.6% | viability, T/C (second compound 10 µM, first compound 3.16 µM): 42.1% | viability, T/C (second compound 10 µM, first compound 10 µM): 1.76%

CCN1CCN(Cc2ccc(Nc3ncc(F)c(-c4cc(F)c5nc(C)n(C(C)C)c5c4)n3)nc2)CC1
viability, T/C (compound 0.00316 µM): 98.4% [middle of 4 runs] | viability, T/C (compound 0.01 µM): 96.4% [middle of 4 runs] | viability, T/C (compound 0.0316 µM): 93.1% [middle of 4 runs] | viability, T/C (compound 0.1 µM): 100% and 101% (2×) and 89.5% | viability, T/C (compound 0.316 µM): 88.2% [middle of 4 runs] | viability, T/C (compound 1 µM): 85.2% [middle of 4 runs] | IC50 (curve of compound): > 1000 nM
